Test results taken from the supplement of paper PMC13380429.

What was measured:
[1] = system: A549-ACE2 infected with SARS-CoV-2; assay: morphology score (similarity to uninfected cells); higher = more like uninfected cells; details: 24 h
A549-ACE2 [2] = assay: drug-induced phospholipidosis relative to tamoxifen; higher = more phospholipidosis
A549-ACE2 [3] = assay: phospholipidosis EC50; higher = less potent phospholipidosis inducer
[4] = system: A549-ACE2 infected with SARS-CoV-2; assay: cell count relative to DMSO; higher = less toxic; details: 24 h
Caco-2 [5] = assay: drug sensitivity score (DSS) for viability; higher = more toxic; extreme values may be limits of the assay; details: 72 h
Calu-3 [6] = assay: as above; details: 72 h
Vero E6 [7] = assay: as above; details: 72 h
HepG2 [8] = assay: as above; details: 72 h
U2OS [9] = assay: as above; details: 72 h
Caco-2 [10] = assay: cell viability relative to DMSO; higher = less toxic; details: 72 h
Calu-3 [11] = assay: as above; details: 72 h
Vero E6 [12] = assay: as above; details: 72 h
HepG2 [13] = assay: as above; details: 72 h
U2OS [14] = assay: as above; details: 72 h
Caco-2 [15] = assay: relative viability EC50 (midpoint between 100% and the lowest measured viability); higher = less toxic; details: 72 h
Calu-3 [16] = assay: as above; details: 72 h
Vero E6 [17] = assay: as above; details: 72 h
HepG2 [18] = assay: as above; details: 72 h
U2OS [19] = assay: as above; details: 72 h
[20] = system: A549-ACE2 infected with SARS-CoV-2; assay: SARS-CoV-2 infection rate relative to DMSO; higher = more infection; details: 24 h

Cc1ccccc1-n1c(Cn2ncc3c(N)ncnc32)nc2cccc(C)c2c1=O [PIK-293]
Details	SARS-CoV-2 infection rate [%]	cell count [%]	cell viability [%]	morphology score	phospholipidosis EC50 [µM]
A549-ACE2 [3], 24 h	–	–	–	–	2.86
A549-ACE2 [3], 48 h	–	–	–	–	3.88
Caco-2 [10], 1 nM	–	–	101	–	–
Caco-2 [10], 10 nM	–	–	94.2	–	–
Caco-2 [10], 100 nM	–	–	91.1	–	–
Caco-2 [10], 1000 nM	–	–	95.8	–	–
Caco-2 [10], 10000 nM	–	–	89.9	–	–
Calu-3 [11], 1 nM	–	–	96.8	–	–
Calu-3 [11], 10 nM	–	–	90.5	–	–
Calu-3 [11], 100 nM	–	–	93	–	–
Calu-3 [11], 1000 nM	–	–	111	–	–
Calu-3 [11], 10000 nM	–	–	102	–	–
HepG2 [13], 1 nM	–	–	95.5	–	–
HepG2 [13], 10 nM	–	–	90	–	–
HepG2 [13], 100 nM	–	–	104	–	–
HepG2 [13], 1000 nM	–	–	95	–	–
HepG2 [13], 10000 nM	–	–	99.4	–	–
U2OS [14], 1 nM	–	–	91.4	–	–
U2OS [14], 10 nM	–	–	100	–	–
U2OS [14], 100 nM	–	–	93.6	–	–
U2OS [14], 1000 nM	–	–	100	–	–
U2OS [14], 10000 nM	–	–	95.5	–	–
Vero E6 [12], 1 nM	–	–	102	–	–
Vero E6 [12], 10 nM	–	–	99	–	–
Vero E6 [12], 100 nM	–	–	105	–	–
Vero E6 [12], 1000 nM	–	–	101	–	–
Vero E6 [12], 10000 nM	–	–	104	–	–
[1], 0.3 µM	–	–	–	0.21	–
[1], 3 µM	–	–	–	0.76	–
[1], 10 µM	–	–	–	0.02	–
[4], 0.3 µM	–	84	–	–	–
[4], 3 µM	–	98	–	–	–
[4], 10 µM	–	65	–	–	–
[20], 0.3 µM	89	–	–	–	–
[20], 3 µM	27	–	–	–	–
[20], 10 µM	70	–	–	–	–

drug-induced phospholipidosis [%], A549-ACE2 [2]
Details	0.3 µM	0.833333 µM	3.33333 µM	6.66667 µM	10 µM
24 h	2.65	16.4	52.5	87.2	81
48 h	5.81	14	48.3	99.5	–
72 h	3.73	6.21	–	–	–

Details	drug sensitivity score	relative viability EC50 [µM]
Caco-2 [5]	0	–
Caco-2 [15]	–	> 10
Calu-3 [6]	0	–
Calu-3 [16]	–	> 10
HepG2 [8]	0	–
HepG2 [18]	–	> 10
U2OS [9]	0	–
U2OS [19]	–	> 10
Vero E6 [7]	0	–
Vero E6 [17]	–	> 10

CC(CN1c2ccccc2Sc2ccccc21)N(C)C (stereo not drawn) [promethazine]
Details	SARS-CoV-2 infection rate [%]	cell count [%]	cell viability [%]	morphology score	phospholipidosis EC50 [µM]
A549-ACE2 [3], 24 h	–	–	–	–	7.49
A549-ACE2 [3], 48 h	–	–	–	–	9.37
A549-ACE2 [3], 72 h	–	–	–	–	11.1
Caco-2 [10], 1 nM	–	–	99.8	–	–
Caco-2 [10], 10 nM	–	–	99	–	–
Caco-2 [10], 100 nM	–	–	106	–	–
Caco-2 [10], 1000 nM	–	–	107	–	–
Caco-2 [10], 10000 nM	–	–	92.7	–	–
Calu-3 [11], 1 nM	–	–	112	–	–
Calu-3 [11], 10 nM	–	–	103	–	–
Calu-3 [11], 100 nM	–	–	98.6	–	–
Calu-3 [11], 1000 nM	–	–	103	–	–
Calu-3 [11], 10000 nM	–	–	96.1	–	–
HepG2 [13], 1 nM	–	–	119	–	–
HepG2 [13], 10 nM	–	–	96.4	–	–
HepG2 [13], 100 nM	–	–	78.1	–	–
HepG2 [13], 1000 nM	–	–	103	–	–
HepG2 [13], 10000 nM	–	–	83.3	–	–
U2OS [14], 1 nM	–	–	103	–	–
U2OS [14], 10 nM	–	–	108	–	–
U2OS [14], 100 nM	–	–	97.8	–	–
U2OS [14], 1000 nM	–	–	100	–	–
U2OS [14], 10000 nM	–	–	94.9	–	–
Vero E6 [12], 1 nM	–	–	101	–	–
Vero E6 [12], 10 nM	–	–	95.5	–	–
Vero E6 [12], 100 nM	–	–	99.4	–	–
Vero E6 [12], 1000 nM	–	–	102	–	–
Vero E6 [12], 10000 nM	–	–	80.5	–	–
[1], 0.3 µM	–	–	–	0.09	–
[1], 3 µM	–	–	–	0.72	–
[1], 10 µM	–	–	–	0.76	–
[1], 30 µM	–	–	–	0.72	–
[4], 0.3 µM	–	103	–	–	–
[4], 3 µM	–	112	–	–	–
[4], 10 µM	–	118	–	–	–
[4], 30 µM	–	115	–	–	–
[20], 0.3 µM	93	–	–	–	–
[20], 3 µM	51	–	–	–	–
[20], 10 µM	63	–	–	–	–
[20], 30 µM	11	–	–	–	–

drug-induced phospholipidosis [%], A549-ACE2 [2]
Details	0.3 µM	0.833333 µM	3.33333 µM	6.66667 µM	10 µM	30 µM
24 h	1.08	0.17	9.69	43.2	62.1	92
48 h	-0.1	0.2	6.54	31.9	55.6	96.7
72 h	1.14	0.443	8.72	23.6	50.4	102

Details	drug sensitivity score	relative viability EC50 [µM]
Caco-2 [5]	0	–
Caco-2 [15]	–	> 10
Calu-3 [6]	0	–
Calu-3 [16]	–	> 10
HepG2 [8]	0.3	–
HepG2 [18]	–	> 10
U2OS [9]	0	–
U2OS [19]	–	> 10
Vero E6 [7]	0.4	–
Vero E6 [17]	–	> 10

c1cc(CN2CCCCC2)cc(OCCCNc2nc3ccccc3s2)c1 [zolantidine]
Details	SARS-CoV-2 infection rate [%]	cell count [%]	cell viability [%]	morphology score	phospholipidosis EC50 [µM]
A549-ACE2 [3], 24 h	–	–	–	–	7.87
A549-ACE2 [3], 48 h	–	–	–	–	9.34
A549-ACE2 [3], 72 h	–	–	–	–	12.4
Caco-2 [10], 1 nM	–	–	104	–	–
Caco-2 [10], 10 nM	–	–	93.4	–	–
Caco-2 [10], 100 nM	–	–	99.7	–	–
Caco-2 [10], 1000 nM	–	–	96.6	–	–
Caco-2 [10], 10000 nM	–	–	86.4	–	–
Calu-3 [11], 1 nM	–	–	89.8	–	–
Calu-3 [11], 10 nM	–	–	88.3	–	–
Calu-3 [11], 100 nM	–	–	108	–	–
Calu-3 [11], 1000 nM	–	–	98.1	–	–
Calu-3 [11], 10000 nM	–	–	84.9	–	–
HepG2 [13], 1 nM	–	–	99.1	–	–
HepG2 [13], 10 nM	–	–	91.8	–	–
HepG2 [13], 100 nM	–	–	97.6	–	–
HepG2 [13], 1000 nM	–	–	102	–	–
HepG2 [13], 10000 nM	–	–	89.5	–	–
U2OS [14], 1 nM	–	–	101	–	–
U2OS [14], 10 nM	–	–	95.9	–	–
U2OS [14], 100 nM	–	–	104	–	–
U2OS [14], 1000 nM	–	–	97.6	–	–
U2OS [14], 10000 nM	–	–	94.6	–	–
Vero E6 [12], 1 nM	–	–	90.2	–	–
Vero E6 [12], 10 nM	–	–	103	–	–
Vero E6 [12], 100 nM	–	–	98.3	–	–
Vero E6 [12], 1000 nM	–	–	102	–	–
Vero E6 [12], 10000 nM	–	–	94.4	–	–
[1], 0.3 µM	–	–	–	-0.12	–
[1], 3 µM	–	–	–	0.76	–
[1], 10 µM	–	–	–	0.9	–
[1], 30 µM	–	–	–	0.62	–
[4], 0.3 µM	–	101	–	–	–
[4], 3 µM	–	118	–	–	–
[4], 10 µM	–	119	–	–	–
[4], 30 µM	–	124	–	–	–
[20], 0.3 µM	98	–	–	–	–
[20], 3 µM	50	–	–	–	–
[20], 10 µM	20	–	–	–	–
[20], 30 µM	12	–	–	–	–

drug-induced phospholipidosis [%], A549-ACE2 [2]
Details	0.3 µM	0.833333 µM	3.33333 µM	6.66667 µM	10 µM	30 µM
24 h	3.01	2.56	9.9	36.9	64.3	91.7
48 h	3.2	2.85	4.98	28.7	56.2	97.1
72 h	5.43	2.63	7.7	25.4	50.3	116

Details	drug sensitivity score	relative viability EC50 [µM]
Caco-2 [5]	0.2	–
Caco-2 [15]	–	> 10
Calu-3 [6]	0.4	–
Calu-3 [16]	–	> 10
HepG2 [8]	0	–
HepG2 [18]	–	> 10
U2OS [9]	0	–
U2OS [19]	–	> 10
Vero E6 [7]	0	–
Vero E6 [17]	–	> 10
